# Measurements as given in US4226610A, “Herbicidal compounds, preparation thereof and herbicides containing the same” (Meiji Selka Kaisha, Ltd., priority 1978, dated 1980).
# Assays:
# manna grass = test: Experiment 1 foliar application to naturally growing weeds; type: in vivo, Digitaria adsceudes Henr.; conditions: for Reproduction-inhibiting effect: 2 months
# Procedure, shortened: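 Dilute compounds to prescribed concentrations; add 0.1% octylphenyl polyoxyethanol; spray foliage of in-situ weeds at 150 liter per 10 are. Score killing 0–5 on day 21. Score reproduction (-) to (+++) at month 2 (cockspar grass) or month 4 (chigaya, azumanezasa, warunasubi).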
# yabugarashi = test: as above; type: in vivo, Cayratia japonica Houtt.; conditions: for Reproduction-inhibiting effect: 4 months
# Procedure, shortened: (§1)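 Read-outs were a 0–5 killing index at 21 days and a reproduction score from (-), no reproduction, to (+++), no suppression. Reproduction was read at 2 months for cockspar grass and 4 months for the other species, after foliar spraying at 150 liter per 10 are with 0.1% surfactant.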
# purple nutsedge = test: as above; type: in vivo, Cyperus rotundus L.; conditions: 4 months
# Procedure, shortened: as §1
# hedge bindweed = test: as above; type: in vivo, Calystegis hederacea Wall.; conditions: 4 months
# Procedure, shortened: as §1
# azumanezasa = test: as above; type: in vivo, Pleioblastus Chino Makino; conditions: for Reproduction-inhibiting effect: 4 months; for Killing index of Upperground parts: 21 days
# Procedure, shortened: (§2)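 Test compounds, diluted to prescribed concentrations with 0.1% octylphenyl polyoxyethanol surfactant, were sprayed onto foliage of naturally growing weeds at 150 liter per 10 are. Killing index (0, no effect; 5, death) was scored at 21 days. Reproduction was scored from (-), complete suppression, to (+++), none, at 2 months for cockspar grass and 4 months for the other weeds.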
# chigaya = test: as above; type: in vivo, Imperata cylindrica Beauv.; conditions: for Reproduction-inhibiting effect: 4 months
# Procedure, shortened: as §2
# kiichigo = test: Experiment 3 foliar application to naturally growing shrubs; type: in vivo, Rubus palmatsu Thunb. forma coptophyllus Makino
# Procedure, shortened: (§3)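 Sprays contained 0.1% octylphenyl polyoxyethanol and compound diluted to prescribed concentrations. They were applied to the leaves of wild shrubs at a rate of 150 liter per 10 are. Damage was rated 0–5 after one and three months, and regrowth − to +++ after three months.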
# Japanese prickly ash = test: as above; type: in vivo, Xanthoxylum piperitum DC.
# Procedure, shortened: as §3
# torch azalea = test: as above; type: in vivo, Rhododendoron Kaempferi Planch.; conditions: for Reproduction-inhibiting: after 3 months
# Procedure, shortened: as §3
# water hyacinth [1] = test: Experiment 5 foliar application to water hyacinths; type: in vivo, Eichhornia crassipes Solms; conditions: 3 months
# Procedure, shortened: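 Two plants floated in fertilized water per vessel, sprayed foliarly with 0.1 or 0.2% aqueous compound solutions at 100 liter per 10 are plus 0.1% octylphenyl polyoxyethanol. Killing index (0 no effect to 5 death) scored at 21 days and 3 months; reproduction inhibition scored (-) to (+++) at 3 months.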
# urikawa = test: Experiment 6 spray on aquatic plants in concrete pots; type: in vivo, Sagittaria pygmaea Miguel; conditions: 3 months
# Text: (§4) The detail of the assessment made in the following Experiments of the invention was as follows:
# (§5) Four months after treatment, evaluation was made for inhibition of reproduction expressed in terms of symbols ranging from (-) to (+++) where (-) means no reproduction, namely complete suppression of reproduction, (±) remarkable suppression of reproduction; (+) considerable suppression of reproduction; (++) medium supprestion of reproduction; and (+++) no suppression of reproduction.
# (§6) A paddy field soil was packed in 50 cm. square concrete pots. omodaka (Sagittaria trifolia L.), urikawa (Sagittaria pygmaea Miq.), prog-bit (Hydrocharis dubia) and aginashi (Sagittaria Aginashi Makino) were transplanted; then water was poured onto the soil at 5 cm. depth.
# (§7) Further, water hyacinth, greater-duckweed (Spirodela polyrhiza Schleid.) and duckweed (Lemna paucicostata Hegelm) were floated on the water.
# (§8) After one month, the compounds of the invention diluted to the prescribed concentrations as indicated in Table 8 were sprayed in an amount of 100 liter per 10 are. As a surfactant, 0.1% of octylphenyl polyoxyethanol was added thereto.
# (§9) The killing index (0, no effect; 5, death) after 21 days and 3 months and the reproduction-inhibiting effect (-, no reproduction; +++, maximum reproduction) after 3 months were determined.
# progbit = test: as above; type: in vivo, Hydrocharis dubia; conditions: 3 months
# Text: as §4, §5, §6, §7, §8, §9
# water hyacinth [2] = test: as above; type: in vivo, Eichhornia crassipes Solms; conditions: for Reproduction-inhibiting effect: 3 months
# Text: as §4, §5, §6, §7, §8, §9
# duckweed = test: as above; type: in vivo, Lemna paucicostata Hegelm; conditions: for Reproduction-inhibiting effect: 3 months
# Text: as §4, §5, §6, §7, §8, §9
# hornwort = test: Experiment 7 application to water; type: in vivo, Ceratophyllum demersum L.; design: scale not given here
# Text: A black soil was packed in 50 cm. square concrete pots and water was poured there-onto at 50 cm. in depth. Hornwort (Ceratophyllum demersum L.), stonewort (Chara Braunii Gmel.) and salvinia (Salvinia natans All.) were transplanted and pond scum (Spirogira crassa Kutz) and diatoms (Bacillariophyta) were floated in the water.
# Then, the compounds of the invention were applied dropwise onto the surface of the water so that the prescribed concentrations in the water are obtained as indicated in Table 9.
# Solubility (Table 1) = conditions: ethanol, organic solvent or mixture
compound,measurement,setting,value
"CP(=O)(O)CC[C@H](N)C(=O)O [L-AMPB choline, L-2-Amino-4-methylphosphino-butanoic acid choline]",Reproduction-inhibiting effect,manna grass; 0.05%,±
same,Reproduction-inhibiting effect,manna grass; 0.1%,-
same,Reproduction-inhibiting effect,manna grass; 0.2%,-
same,Reproduction-inhibiting effect,yabugarashi; 0.05%,±
same,Reproduction-inhibiting effect,yabugarashi; 0.1%,-
same,Reproduction-inhibiting effect,yabugarashi; 0.2%,-
same,Reproduction-inhibiting effect,purple nutsedge; 0.05%,+
same,Reproduction-inhibiting effect,purple nutsedge; 0.1%,±
same,Reproduction-inhibiting effect,purple nutsedge; 0.2%,-
same,Reproduction-inhibiting effect,hedge bindweed; 0.05%,±
same,Reproduction-inhibiting effect,hedge bindweed; 0.1%,-
same,Reproduction-inhibiting effect,hedge bindweed; 0.2%,-
same,Reproduction-inhibiting effect,azumanezasa; 0.05%,±
same,Reproduction-inhibiting effect,azumanezasa; 0.1%,-
same,Reproduction-inhibiting effect,azumanezasa; 0.2%,-
same,Reproduction-inhibiting effect,chigaya; 0.05%,-
same,Reproduction-inhibiting effect,chigaya; 0.1%,-
same,Reproduction-inhibiting effect,chigaya; 0.2%,-
same,Reproduction-inhibiting,"kiichigo; 0.05%, after 3 months",-
same,Killing index,"kiichigo; 0.05%, after 30 days",4.5
same,Reproduction-inhibiting,"kiichigo; 0.1%, after 3 months",-
same,Reproduction-inhibiting,"kiichigo; 0.2%, after 3 months",-
same,Killing index,"Japanese prickly ash; 0.05%, after 3 months",4.5
same,Reproduction-inhibiting,"Japanese prickly ash; 0.05%, after 3 months",±
same,Killing index,"Japanese prickly ash; 0.05%, after 30 days",4.5
same,Reproduction-inhibiting,"Japanese prickly ash; 0.1%, after 3 months",-
same,Reproduction-inhibiting,"Japanese prickly ash; 0.2%, after 3 months",-
same,Reproduction-inhibiting,torch azalea; 0.05%,-
same,Reproduction-inhibiting,torch azalea; 0.1%,-
same,Reproduction-inhibiting,torch azalea; 0.2%,-
same,Reproduction-inhibiting effect,water hyacinth [1]; 0.1%,-
same,Reproduction-inhibiting effect,water hyacinth [1]; 0.2%,-
same,Reproduction-inhibiting effect,urikawa; 0.05%,+
same,Reproduction-inhibiting effect,urikawa; 0.1%,-
same,Reproduction-inhibiting effect,urikawa; 0.2%,-
same,Reproduction-inhibiting effect,progbit; 0.05%,+
same,Reproduction-inhibiting effect,progbit; 0.1%,-
same,Reproduction-inhibiting effect,progbit; 0.2%,-
same,Reproduction-inhibiting effect,water hyacinth [2]; 0.05%,++
same,Reproduction-inhibiting effect,water hyacinth [2]; 0.1%,-
same,Reproduction-inhibiting effect,water hyacinth [2]; 0.2%,-
same,Reproduction-inhibiting effect,duckweed; 0.05%,-
same,Reproduction-inhibiting effect,duckweed; 0.1%,-
same,Reproduction-inhibiting effect,duckweed; 0.2%,-
same,controlling effect,"hornwort; 1 ppm, 3 months",2
same,controlling effect,"hornwort; 1 ppm, 21 days",3
same,controlling effect,"hornwort; 3 ppm, 3 months",5
same,controlling effect,"hornwort; 3 ppm, 21 days",5
same,controlling effect,"hornwort; 10 ppm, 3 months",5
same,controlling effect,"hornwort; 10 ppm, 21 days",5
"C[C@H](NC(=O)[C@H](C)NC(=O)[C@@H](N)CCP(C)(=O)O)C(=O)O [SF-1293 choline, (L-2-Amino-4-methylphosphinobutyryl)-L-alanyl-L-alanine choline]",Reproduction-inhibiting effect,manna grass; 0.05%,+
same,Reproduction-inhibiting effect,manna grass; 0.1%,±
same,Killing index of Upperground parts,"manna grass; 0.1%, 21 days",4.5
same,Reproduction-inhibiting effect,manna grass; 0.2%,-
same,Reproduction-inhibiting effect,yabugarashi; 0.05%,++
same,Killing index of Upperground parts,"yabugarashi; 0.05%, 21 days",3.5
same,Reproduction-inhibiting effect,yabugarashi; 0.1%,±
same,Reproduction-inhibiting effect,yabugarashi; 0.2%,-
same,Reproduction-inhibiting effect,purple nutsedge; 0.05%,++
same,Reproduction-inhibiting effect,purple nutsedge; 0.1%,+
same,Reproduction-inhibiting effect,purple nutsedge; 0.2%,±
same,Reproduction-inhibiting effect,hedge bindweed; 0.05%,+
same,Reproduction-inhibiting effect,hedge bindweed; 0.1%,±
same,Reproduction-inhibiting effect,hedge bindweed; 0.2%,-
same,Reproduction-inhibiting effect,azumanezasa; 0.05%,+
same,Reproduction-inhibiting effect,azumanezasa; 0.1%,-
same,Reproduction-inhibiting effect,azumanezasa; 0.2%,-
same,Reproduction-inhibiting effect,chigaya; 0.05%,+
same,Reproduction-inhibiting effect,chigaya; 0.1%,-
same,Reproduction-inhibiting effect,chigaya; 0.2%,-
same,Reproduction-inhibiting,"kiichigo; 0.05%, after 3 months",++
same,Reproduction-inhibiting,"kiichigo; 0.1%, after 3 months",-
same,Reproduction-inhibiting,"kiichigo; 0.2%, after 3 months",-
same,Reproduction-inhibiting,"Japanese prickly ash; 0.05%, after 3 months",++
same,Killing index,"Japanese prickly ash; 0.1%, after 3 months",4.5
same,Reproduction-inhibiting,"Japanese prickly ash; 0.1%, after 3 months",±
same,Reproduction-inhibiting,"Japanese prickly ash; 0.2%, after 3 months",-
same,Reproduction-inhibiting,torch azalea; 0.05%,++
same,Reproduction-inhibiting,torch azalea; 0.1%,-
same,Killing index,"torch azalea; 0.1%, after 30 days",4.5
same,Reproduction-inhibiting,torch azalea; 0.2%,-
same,Reproduction-inhibiting effect,water hyacinth [1]; 0.1%,±
same,Reproduction-inhibiting effect,water hyacinth [1]; 0.2%,-
same,Reproduction-inhibiting effect,urikawa; 0.05%,++
same,Reproduction-inhibiting effect,urikawa; 0.1%,±
same,Reproduction-inhibiting effect,urikawa; 0.2%,-
same,Reproduction-inhibiting effect,progbit; 0.05%,++
same,Reproduction-inhibiting effect,progbit; 0.1%,±
same,Reproduction-inhibiting effect,progbit; 0.2%,-
same,Reproduction-inhibiting effect,water hyacinth [2]; 0.05%,++
same,Reproduction-inhibiting effect,water hyacinth [2]; 0.1%,-
same,Killing index,"water hyacinth [2]; 0.1%, 21 days",4.5
same,Reproduction-inhibiting effect,water hyacinth [2]; 0.2%,-
same,Reproduction-inhibiting effect,duckweed; 0.05%,+
same,Reproduction-inhibiting effect,duckweed; 0.1%,-
same,Killing index,"duckweed; 0.1%, 21 days",4.5
same,Reproduction-inhibiting effect,duckweed; 0.2%,-
same,controlling effect,"hornwort; 1 ppm, 3 months",1
same,controlling effect,"hornwort; 1 ppm, 21 days",2
same,controlling effect,"hornwort; 3 ppm, 3 months",5
same,controlling effect,"hornwort; 3 ppm, 21 days",4
same,controlling effect,"hornwort; 10 ppm, 3 months",5
same,controlling effect,"hornwort; 10 ppm, 21 days",5
same,solubility,Solubility (Table 1),310 mg/mL
CP(=O)(O)CCC(N)C(=O)O (racemic) [DL-AMPB choline],Reproduction-inhibiting effect,manna grass; 0.05%,++
same,Reproduction-inhibiting effect,manna grass; 0.1%,±
same,Reproduction-inhibiting effect,manna grass; 0.2%,-
same,Reproduction-inhibiting effect,yabugarashi; 0.05%,++
same,Reproduction-inhibiting effect,yabugarashi; 0.1%,±
same,Reproduction-inhibiting effect,yabugarashi; 0.2%,-
same,Reproduction-inhibiting effect,purple nutsedge; 0.05%,++
same,Reproduction-inhibiting effect,purple nutsedge; 0.1%,+
same,Reproduction-inhibiting effect,purple nutsedge; 0.2%,±
same,Reproduction-inhibiting effect,hedge bindweed; 0.05%,++
same,Reproduction-inhibiting effect,hedge bindweed; 0.1%,±
same,Reproduction-inhibiting effect,hedge bindweed; 0.2%,-
same,Reproduction-inhibiting effect,azumanezasa; 0.05%,++
same,Killing index of Upperground parts,azumanezasa; 0.05%,1.5
same,Reproduction-inhibiting effect,azumanezasa; 0.1%,±
same,Killing index of Upperground parts,azumanezasa; 0.1%,3.5
same,Reproduction-inhibiting effect,azumanezasa; 0.2%,-
same,Reproduction-inhibiting effect,chigaya; 0.05%,++
same,Reproduction-inhibiting effect,chigaya; 0.1%,-
same,Killing index of Upperground parts,"chigaya; 0.1%, 21 days",4.5
same,Reproduction-inhibiting effect,chigaya; 0.2%,-
same,Reproduction-inhibiting,"kiichigo; 0.05%, after 3 months",+
same,Killing index,"kiichigo; 0.1%, after 3 months",4.5
same,Reproduction-inhibiting,"kiichigo; 0.1%, after 3 months",±
same,Reproduction-inhibiting,"kiichigo; 0.2%, after 3 months",-
same,Reproduction-inhibiting,"Japanese prickly ash; 0.05%, after 3 months",++
same,Reproduction-inhibiting,"Japanese prickly ash; 0.1%, after 3 months",+
same,Reproduction-inhibiting,"Japanese prickly ash; 0.2%, after 3 months",-
same,Reproduction-inhibiting,torch azalea; 0.05%,++
same,Reproduction-inhibiting,torch azalea; 0.1%,-
same,Reproduction-inhibiting,torch azalea; 0.2%,-
same,Reproduction-inhibiting effect,water hyacinth [1]; 0.1%,+
same,Reproduction-inhibiting effect,water hyacinth [1]; 0.2%,-
same,Reproduction-inhibiting effect,urikawa; 0.05%,++
same,Reproduction-inhibiting effect,urikawa; 0.1%,+
same,Reproduction-inhibiting effect,urikawa; 0.2%,-
same,Reproduction-inhibiting effect,progbit; 0.05%,++
same,Reproduction-inhibiting effect,progbit; 0.1%,±
same,Reproduction-inhibiting effect,progbit; 0.2%,-
same,Reproduction-inhibiting effect,water hyacinth [2]; 0.05%,+++
same,Reproduction-inhibiting effect,water hyacinth [2]; 0.1%,++
same,Reproduction-inhibiting effect,water hyacinth [2]; 0.2%,-
same,Reproduction-inhibiting effect,duckweed; 0.05%,+
same,Reproduction-inhibiting effect,duckweed; 0.1%,-
same,Reproduction-inhibiting effect,duckweed; 0.2%,-
same,controlling effect,"hornwort; 1 ppm, 3 months",1
same,controlling effect,"hornwort; 1 ppm, 21 days",2
same,controlling effect,"hornwort; 3 ppm, 3 months",5
same,controlling effect,"hornwort; 3 ppm, 21 days",4.5
same,controlling effect,"hornwort; 10 ppm, 3 months",5
same,controlling effect,"hornwort; 10 ppm, 21 days",5
